Assay results published in US6419907B1, “Use of cupric complex of 3,5-disopropylsalicylic acid by way of a cosmetic product and cosmetic compositions containing this compound for protecting the human epidermis against UV radiation” (L'Oreal, priority 1987, dated 2002).

System: skin
Experiment: application on the skin against injuries caused by solar/UV radiation
Type: in vivo
Details: persists in the presence of sunscreens

## CC(C)c1cc2c(c(C(C)C)c1)[O][Cu]1([O]C2=O)[O]C(=O)c2cc(C(C)C)cc(C(C)C)c2[O]1 [copper (II) bis(3,5-diisopropylsalicylate)]
  intensity of the solar erythema: reduced
  number of degraded keratinocytes: reduced
